From paper PMC5353780, “A novel benzo-heterocyclic amine derivative N30 inhibits influenza virus replication by depression of Inosine-5’-Monophospate Dehydrogenase activity” (Virology Journal, 2017)
Where a name gives a salt, the structure may show the parent alone.

Legend:
Assay in all cases: microbe, parasite or virus in culture
Details in all cases: for IC50: Influenza A virus, MDCK; for SI: TC50/IC50
[1] = system: A/liaoningzhenxing/1109/2010; assay type: cell-based, Influenza A virus (H1N1, oseltamivir-resistant)
A/hunanzhuhui/1222/2010 = assay type: cell-based, Influenza A virus (H3N2, amantadine-resistant)
A/tianjinjinnan/15/2009 = assay type: cell-based, Influenza A virus (H1N1, oseltamivir-resistant)
A/fujiantongan/196/2009 = assay type: cell-based, Influenza A virus (H3N2, amantadine-resistant)

Row | SMILES | IC50 [1] [µM] | IC50 (A/hunanzhuhui/1222/2010) [µM] | IC50 (A/tianjinjinnan/15/2009) [µM] | IC50 (A/fujiantongan/196/2009) [µM] | SI [1] | SI (A/hunanzhuhui/1222/2010) | SI (A/tianjinjinnan/15/2009) | SI (A/fujiantongan/196/2009)
1 | NC12CC3CC(CC(C3)C1)C2 [AH, amantadine hydrochloride] | 10.13 ± 0.04 | 57.2 ± 2.23 | 18.2 ± 0.24 | 78.8 ± 3.04 |  |  |  | 
2 | O=[N+]([O-])c1ccc(CNc2ccc3ncsc3c2)cc1 [N30, N-(4-nitrophenylmethyl) benzothiazole-6-amine] | 3.43 ± 3.36 | 1.76 ± 0.24 | 1.67 ± 0.49 | 1.13 ± 0.43 | 19.44 | 37.89 | 39.92 | 59.00
3 | CCC(CC)O[C@@H]1C=C(C(=O)O)C[C@H](N)[C@H]1NC(C)=O [OC, oseltamivir carboxylate] | 3.2 ± 0.21 | 0.78 ± 0.02 | 2.57 ± 0.1 | 0.28 ± 0.01 | >15.58 | >64.10 | >19.45 | >178.57
4 | NC(=O)c1ncn([C@@H]2O[C@H](CO)[C@@H](O)[C@H]2O)n1 [RBV, Ribavirin] | 4.92 ± 3.02 |  | 2.54 ± 1.25 | 4.42 ± 0.74 |  |  |  | 
